The numbers were not newly measured in patent US12409131B2, “Transdermal delivery of dronabinol” (Pike Therapeutics USA, Inc., priority 2019, dated 2025), which cites them from elsewhere.

The conditions of series [1]: in 96 hrs through human cadaver skin, U.S. Pat. No. 8,449,908.

In the case of `CCCCCc1cc(O)c2c(c1)OC(C)(C)[C@@H]1CCC(C)=C[C@@H]21` (relative stereo) [dronabinol, (6aR-trans)-6a,7,8,10a-tetrahydro-6,6,9-trimethyl-3-pentyl-6H-dibenzo[b,d]pyran-1-ol], the Oral bioavailability was 10-20%. In addition, the cumulative amount delivered in series [1] is listed as 10000 ng.
